Reference: patent US7655659B2, “Biomimetic of Evodia rutaecarpa fruit extract for amelioration of inflammation” (Applied Genetics Incorporated Dermatics, priority 2004, dated 2010)
Where two headings read alike, the source gives them in different places. Blank lines part the entries; values can stand above or below the compound they belong to.

Legend:
[1] = tested on: normal human epidermal keratinocytes (NHEK); assay: Prostaglandin secretion from cultured skin cells treated with methyl nicotinate (PGD2 and PGE2 ELISA); assay type: cell-based; conditions: NHEK and also HMVEC, 125 to 1000 μM
Method: (§1) Normal human epidermal keratinocytes (NHEK) and human microvascular endothelial cells (HMVEC) were obtained from a commercial supplier (Cascade Biologics, Portland, Oreg., USA) and cultured according to the manufacturer's recommendations. Methyl nicotinate was made up as a IM stock solution in H2O. The stock solution was diluted to 100 mM in H2O. The 100 mM methyl nicotinate was further diluted to 125 to 1000 μM methyl nicotinate in the cell culture media and the NHEK and HMVEC cells were treated when they had grown to approximately 70% confluency with fresh media containing the methyl nicotinate. After 24 hours of incubation in the methyl nicotinate media, the cultured media was collected. Nitric oxide was measured using the Greiss reagents as described in the Calbiochem colorimetric nitric oxide assay kit (Calbiochem, San Diego, Calif.). PGs in the cell culture media were analyzed using commercially available PGD2 and PGE2 ELISA kits (R & D Systems, Minneapolis, Minn., USA). […] This is in accordance with studies on human skin showing that erythema induced by topical application of methyl nicotinate is mediated by PGD2 (Morrow et al., 1992). […] Since NO is a vasodilatory agent that induces skin erythema, methyl nicotinate can thus induce skin erythema by induction of NO as well as via induction of PGD2 and PGE2. […]

[2] = tested on: human microvascular endothelial cells (HMVEC); assay: Nitric oxide release from endothelial cells treated with methyl nicotinate (Greiss reagents); assay type: cell-based; conditions: 24 hours; at much lower concentrations than for PGD2 and PGE2 (FIG. 5B)
Method: as §1

HaCaT cells = assay: Inhibition of UVB-induced PGE2 secretion from HaCaT keratinocytes (PGE2 ELISA); assay type: cell-based; conditions: for μg/ml to inhibit 80% of PGE2 secretion: UVB-irradiated HaCaT cells
Method: The HaCaT keratinocyte cell line was cultured in GibcoBRL (Grand Island, N.Y.) D-MEM low glucose medium containing 10% heat inactivated fetal bovine serum, 1% penicillin/streptomycin, 1% L-glutamine, and 1% nonessential amino acids. […] The media was harvested 24 hours after UVB irradiation and analyzed for prostaglandin E2 (PGE2) content using a PGE2 ELISA kit (R & D Systems Catalogue Number DE0100).
The observation that the selectivity of the Evodia rutaecarpa extract (216, see Example 1) was greater than the selectivity of purified BHT (87, Table 3) led us to conclude that there is synergy among the components in inhibiting COX-2. Initial data is consistent with this synergy existing also in the biomimetic of the present invention. The ability of BHT to inhibit PG secretion from UVB-irradiated HaCaT cells was examined by treating cells with BHT immediately after UVB irradiation. The media was harvested 24 hours later and analyzed for PGE2 content using a PGE2 ELISA kit (R & D Systems, Minneapolis, Minn., USA). BHT inhibited UVB-induced PG secretion at 2-20 μg/ml, which is in the range of the IC50 for inhibition of COX-2 in vitro.
The preferred Evodia mixture of Table 4 was examined for its ability to inhibit UVB-induced PGE2 secretion from HaCaT cells. […] This illustrates the discovery that the Evodia rutaecarpa extract contains a compound which blocks this activity and that when the inhibitor is removed the components act synergistically to inhibit UVB-induced PGE2. The preferred Evodia mixture was also effective at inhibiting the COX-2 enzyme in vitro. […] Thus, while the Evodia mixture is useful for inhibiting UVB-induced PGE2 secretion from skin cells when used at 0.01% (v/v) (FIG. 4), for inflammatory conditions mediated exclusively by COX-2, the preferred formulation would contain at least 1% (v/v) Evodia mixture.

human skin = assay: Methyl nicotinate-induced erythema in human skin (Dermaspectrometer); assay type: in vivo; conditions: hydrogel lotion; Evodia mixture 1% (v/v) = 60.8 μg/ml actives, bisabolol 61 μg/ml
Method: Each application area was demarked by an adjacent label made with a permanent black ink marker. One hour prior to the methyl nicotinate challenge dose, the Evodia mixture lotion was applied liberally to treatment spots. A Carbopol® hydrogel lotion containing no Evodia mixture was used as a vehicle control. […] Immediately thereafter, 10 μL of a 0.14 mg/ml methyl nicotinate solution in water was applied to each treatment spot. Erythema was read 15, 30, 60 and 90 minutes later. […] Results for all the subjects were calculated as change of erythema readings from time zero.
The same protocol as described above was followed with five sites treated twice daily for two weeks. Three sites were treated with test articles of 0.1%, 0.3% and 1.0% (v/v) Evodia mixture in hydrogel lotion, one site was treated with a vehicle control lotion and one site was not treated with either lotion or methyl nicotinate.
A side by side comparison was made between the Evodia mixture and bisabolol, each formulated in a hydrogel lotion, with bisabolol equal to the total amount of actives in the Evodia mixture.

COX-2 = biological target: T1, COX-2 (Homo sapiens, UniProt P35354); assay: In vitro purified COX-2 enzyme assay (Cayman COX Inhibitor Screening Assay); assay type: biochemical; conditions: for IC50: in vitro
T1 construct: purchased Cayman, Ann Arbor, Mich
T1 sequence (P35354 18-604): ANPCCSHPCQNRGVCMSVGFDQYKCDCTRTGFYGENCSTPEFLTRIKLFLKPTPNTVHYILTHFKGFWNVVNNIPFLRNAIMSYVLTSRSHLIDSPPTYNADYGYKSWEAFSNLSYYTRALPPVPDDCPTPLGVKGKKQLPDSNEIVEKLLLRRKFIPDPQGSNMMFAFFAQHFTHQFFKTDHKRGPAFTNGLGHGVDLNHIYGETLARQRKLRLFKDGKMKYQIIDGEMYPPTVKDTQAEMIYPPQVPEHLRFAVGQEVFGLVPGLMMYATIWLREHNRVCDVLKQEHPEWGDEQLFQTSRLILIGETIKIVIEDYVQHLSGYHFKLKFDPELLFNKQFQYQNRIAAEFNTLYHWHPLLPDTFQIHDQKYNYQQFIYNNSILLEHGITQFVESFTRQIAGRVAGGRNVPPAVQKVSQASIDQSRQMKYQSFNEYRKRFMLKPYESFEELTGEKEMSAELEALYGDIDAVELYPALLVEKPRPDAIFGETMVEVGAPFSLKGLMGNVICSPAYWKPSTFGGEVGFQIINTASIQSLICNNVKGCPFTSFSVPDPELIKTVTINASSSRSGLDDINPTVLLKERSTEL
Method: It is well known that the major source of inducible prostaglandin release from cells is related to induction of cyclo-oxygenase 2 (COX-2). […] The assay was a commercially available COX Inhibitor Screening Assay (Cayman, Ann Arbor, Mich.) run according to the manufacturer's instructions.
Fractions were analyzed for COX-2 inhibitory activity using the in vitro assay employed in the previous example.

COX-1 = biological target: T2, COX-1 (Ovis aries, UniProt P05979); assay: In vitro COX-1 enzyme assay
T2 sequence (P05979 25-600): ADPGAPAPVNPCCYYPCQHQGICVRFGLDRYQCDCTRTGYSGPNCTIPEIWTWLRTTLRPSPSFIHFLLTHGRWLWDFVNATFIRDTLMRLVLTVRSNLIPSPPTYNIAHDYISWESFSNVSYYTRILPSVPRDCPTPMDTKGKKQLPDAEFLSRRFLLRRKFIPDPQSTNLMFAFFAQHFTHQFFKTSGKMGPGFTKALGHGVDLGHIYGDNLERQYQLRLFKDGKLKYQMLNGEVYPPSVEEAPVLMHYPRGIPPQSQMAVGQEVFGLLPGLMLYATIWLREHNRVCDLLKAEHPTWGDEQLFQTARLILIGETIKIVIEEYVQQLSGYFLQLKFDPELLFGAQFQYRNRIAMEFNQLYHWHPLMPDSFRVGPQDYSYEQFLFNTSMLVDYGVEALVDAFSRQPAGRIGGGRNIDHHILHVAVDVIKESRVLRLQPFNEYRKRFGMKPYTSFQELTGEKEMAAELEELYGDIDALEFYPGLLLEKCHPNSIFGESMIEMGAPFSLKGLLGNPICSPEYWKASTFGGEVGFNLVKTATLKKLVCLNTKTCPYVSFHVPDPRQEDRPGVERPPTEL

[3] = read-out: IC50 COX-2 (converted)

Compound: COC(=O)c1cccnc1 [methyl nicotinate]
- PGD2 secretion ([1]; 24 hours (FIG. 5A)): induced
- PGE2 secretion ([1]; 24 hours (data not shown)): induced
- NO secretion from HMVEC [2]: induced

Compound: O=c1c2ccccc2nc2n1CCc1c-2[nH]c2ccccc12 [rutaecarpine]
- μg/ml to inhibit 80% of PGE2 secretion (HaCaT cells): 0.3 µg/mL

Compound: CC(C)=CCC[C@](C)(O)C1CC=C(C)CC1 (stereo partly drawn) [bisabolol]
- effect on methyl nicotinate mediated erythema, side by side comparison (human skin): ineffective

Compound: C[C@H]1[C@H](C)CC[C@]2(C(=O)O)CC[C@]3(C)C(=CC[C@@H]4[C@@]5(C)CC[C@H](O)C(C)(C)[C@@H]5CC[C@]43C)[C@H]12 [Ursolic Acid (URA), ursolic acid]
- IC50 (COX-2; [3]): 59.1 µM

Compound: evodiamine
- μg/ml to inhibit 80% of PGE2 secretion (HaCaT cells): 0.3 µg/mL

- IC50 (COX-1): 5900 µM
- IC50 (COX-2; [3]): 68.1 µM
- Selectivity COX-1/COX-2 (COX-2; ratio of IC50s): 87
Compound: Cc1cc(C(C)(C)C)c(O)c(C(C)(C)C)c1 [Butylated Hydroxytoluene (BHT), butylated hydroxytoluene]
- concentration inhibiting UVB-induced PG secretion (HaCaT cells; cells treated immediately after UVB, media harvested 24 hours later): 2 to 20 µg/mL

- IC50 (COX-2; read-out: μg/ml to inhibit 50% of COX-2 activity): > 24.8 µM
Compound: C[n+]1c2n(c(=O)c3ccccc31)CCc1c-2[nH]c2ccccc12 [dehydroevodiamine]
